Experimental data: article PMC5372594 (International Journal of Molecular Sciences, 2017)
Peptide text beside a SMILES is read from it.

Legend:
GLP-1R [1] = molecular target: T1, GLP-1R (Homo sapiens, UniProt P43220); assay: CRE-luciferase reporter-gene assay, CHO cells stably expressing human GLP-1 receptor; format: cell-based; conditions: 4-h culture with peptide, 10-step 5-fold dilution from 250 nmol/L, mean ± SEM, n = 3
T1 construct: expressed in transfected cells
Procedure: A cyclic adenosine monophosphate response element (CRE)-luciferase based reporter-gene assays, as a surrogate for cyclic adenosine monophosphate (cAMP) formation, were used to measure the abilities of the analogs to activate GLP-1R.
Cells were grown at 37 °C with 5% CO2 in Dulbecco’s modified Eagle’s medium-F12 supplemented with 10% fetal bovine serum (FBS), 4.5 g/L glucose, 100 units/ml penicillin, 100 mg/mL streptomycin, 0.6 mg/mL hygromycin B and 1 mg/mL G418. […] Each well contained 20,000 cells. The initial concentration of each analog and positive control was 250 nmol/L, which was diluted 5 times to produce a 10-step gradient, and each well contained 20 μL. After 4-h culture, 100 μL of a chemical light-emitting substrate was added to each well. Fluorescence was measured with an EnVision 2104 Multilabel Reader (PerkinElmer, Houston, TX, USA) after a 40-min oscillation at 25 °C.

trypsin [2] = assay: trypsin; conditions: up to 60 min
trypsin [3] = assay: Trypsin resistance measured by HPLC (residue rate); format: in vitro ADME
Source text: The substrate was hydrolyzed with trypsin, and the peak area of the sample, which added the stop-buffer at the start point, was set to 100%.

[4] = mouse, in vivo
Procedure: (§1) Retro orbital blood collections were performed on mice at different time points (0, 1, 2, 3, 4, 6, 8, 10 and 12 h).

in vivo = conditions: male, C57BL/6J, mouse
Procedure: as §1

GLP-1R [5] = molecular target: T1, GLP-1R; assay: CHO cell cAMP accumulation assay (ELISA); format: cell-based; conditions: 30 min incubation, 0.5 mM IBMX, 3-parameter non-linear regression, n = 3
Procedure: CHO cells were stably transfected with GLP-1R and grown in conditions described above. […] After 4-h culture, cells were treated with compounds diluted in assay buffer to concentrations within the 10^−4–10^4 nM range and incubated for 30 min. Cells were lysed by freezing and thawing three times. The samples were then assayed according to the cAMP ELISA assay kit protocol (Jiancheng, Nanjing, China).

T1 sequence (P43220 24-463): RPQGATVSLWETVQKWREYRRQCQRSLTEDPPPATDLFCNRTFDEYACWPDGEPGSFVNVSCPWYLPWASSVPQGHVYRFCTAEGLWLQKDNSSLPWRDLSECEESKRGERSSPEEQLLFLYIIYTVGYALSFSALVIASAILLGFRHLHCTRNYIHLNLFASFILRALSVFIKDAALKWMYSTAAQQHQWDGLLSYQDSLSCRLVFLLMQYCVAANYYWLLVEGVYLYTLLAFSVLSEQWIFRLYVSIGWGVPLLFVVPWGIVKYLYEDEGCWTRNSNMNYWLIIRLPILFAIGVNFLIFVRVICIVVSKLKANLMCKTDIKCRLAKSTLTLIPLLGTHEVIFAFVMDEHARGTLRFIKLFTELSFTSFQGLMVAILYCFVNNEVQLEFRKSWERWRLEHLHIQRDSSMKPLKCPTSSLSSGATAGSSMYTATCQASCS

CC[C@H](C)[C@H](NC(=O)[C@H](Cc1ccccc1)NC(=O)[C@H](CC(C)C)NC(=O)[C@H](Cc1ccc(O)cc1)NC(=O)[C@@H](NC(=O)[C@H](C)NC(=O)[C@H](CCC(=O)O)NC(=O)[C@H](CCC(=O)O)NC(=O)[C@H](CCC(=O)O)NC(=O)[C@H](CCSC)NC(=O)[C@H](CCC(N)=O)NC(=O)[C@H](CCSC)NC(=O)[C@H](CO)NC(=O)[C@H](CC(C)C)NC(=O)[C@H](CC(=O)O)NC(=O)[C@H](CO)NC(=O)[C@@H](NC(=O)[C@H](Cc1ccccc1)NC(=O)[C@@H](NC(=O)CNC(=O)[C@H](CCC(=O)O)NC(=O)CNC(=O)[C@@H](N)Cc1c[nH]cn1)[C@@H](C)O)[C@@H](C)O)C(C)C)C(=O)N[C@@H](CCC(=O)O)C(=O)N[C@@H](Cc1c[nH]c2ccccc12)C(=O)N[C@@H](CC(C)C)C(=O)N[C@@H](CCSC)C(=O)N[C@@H](CC(N)=O)C(=O)NCC(=O)NCC(=O)N1CCC[C@H]1C(=O)N[C@@H](CO)C(=O)N[C@@H](CO)C(=O)NCC(=O)N[C@@H](C)C(=O)N1CCC[C@H]1C(=O)N1CCC[C@H]1C(=O)N1CCC[C@H]1C(=O)N[C@@H](CO)C(=O)N[C@@H](CS)C(=O)O [TSME-4] (H-HGEGTFTSDLSMQMEEEAVYLFIEWLMNGGPSSGAPPPSC-OH)
EC50 (GLP-1R [1]): 31.2 nM

HGEGTFTSDLSMQMEEEAVLLFIEWLMNGGPSSGAPPPSC
not cleaved (trypsin [2]): 100% at 60 min

CC[C@H](C)[C@H](NC(=O)[C@H](Cc1ccccc1)NC(=O)[C@H](CC(C)C)NC(=O)[C@@H](NC(=O)[C@@H](NC(=O)[C@H](C)NC(=O)[C@H](CCC(=O)O)NC(=O)[C@H](CCC(=O)O)NC(=O)[C@H](CCC(=O)O)NC(=O)[C@H](CCSC)NC(=O)[C@H](CCC(N)=O)NC(=O)[C@@H](NC(=O)[C@H](CO)NC(=O)[C@H](CC(C)C)NC(=O)[C@H](CC(=O)O)NC(=O)[C@H](CO)NC(=O)[C@@H](NC(=O)[C@H](Cc1ccccc1)NC(=O)[C@@H](NC(=O)CNC(=O)[C@H](CCC(=O)O)NC(=O)CNC(=O)[C@@H](N)Cc1c[nH]cn1)[C@@H](C)O)[C@@H](C)O)C(C)C)C(C)C)C(C)C)C(=O)N[C@@H](CCC(=O)O)C(=O)N[C@@H](Cc1c[nH]c2ccccc12)C(=O)N[C@@H](CC(C)C)C(=O)N[C@H](C(=O)N[C@@H](CC(N)=O)C(=O)NCC(=O)NCC(=O)N1CCC[C@H]1C(=O)N[C@@H](CO)C(=O)N[C@@H](CO)C(=O)NCC(=O)N[C@@H](C)C(=O)N1CCC[C@H]1C(=O)N1CCC[C@H]1C(=O)N1CCC[C@H]1C(=O)N[C@@H](CO)C(=O)N[C@@H](CS)C(=O)O)C(C)C [TSME-3] (H-HGEGTFTSDLSVQMEEEAVVLFIEWLVNGGPSSGAPPPSC-OH)
EC50 (GLP-1R [1]): 19.2 nM

CC[C@H](C)[C@H](NC(=O)[C@H](Cc1ccccc1)NC(=O)[C@H](CC(C)C)NC(=O)[C@H](CC(C)C)NC(=O)[C@@H](NC(=O)[C@H](C)NC(=O)[C@H](CCC(=O)O)NC(=O)[C@H](CCC(=O)O)NC(=O)[C@H](CCC(=O)O)NC(=O)[C@H](CCSC)NC(=O)[C@H](CCC(N)=O)NC(=O)[C@H](CCSC)NC(=O)[C@H](CO)NC(=O)[C@H](CC(C)C)NC(=O)[C@H](CC(=O)O)NC(=O)[C@H](CO)NC(=O)[C@@H](NC(=O)[C@H](Cc1ccccc1)NC(=O)[C@@H](NC(=O)CNC(=O)[C@H](CCC(=O)O)NC(=O)CNC(=O)[C@@H](N)Cc1c[nH]cn1)[C@@H](C)O)[C@@H](C)O)C(C)C)C(=O)N[C@@H](CCC(=O)O)C(=O)N[C@@H](Cc1c[nH]c2ccccc12)C(=O)N[C@@H](CC(C)C)C(=O)N[C@@H](CCSC)C(=O)N[C@@H](CC(N)=O)C(=O)NCC(=O)NCC(=O)N1CCC[C@H]1C(=O)N[C@@H](CO)C(=O)N[C@@H](CO)C(=O)NCC(=O)N[C@@H](C)C(=O)N1CCC[C@H]1C(=O)N1CCC[C@H]1C(=O)N1CCC[C@H]1C(=O)N[C@@H](CO)C(=O)N[C@@H](CS)C(=O)O [TSME-1] (H-HGEGTFTSDLSMQMEEEAVLLFIEWLMNGGPSSGAPPPSC-OH)
Residue rate at 30 min (trypsin [3]): 100% ± 0%
remaining at 1 h (trypsin [3]; isolated enzyme trypsin): 100%
EC50 (GLP-1R [1]): 0.38 nM
Relative bioavailability [4]: 0.881%
Time to peak concentration ([4]; po): An hour
AUC(0-t) (in vivo; po): 0.56 ± 0.15 ng·h/mL
Cmax (in vivo; po, 2.12 mg/kg): 0.2 ± 0.05 ng/mL
AUC(0-t) (in vivo; sc): 3.17 ± 0.72 ng·h/mL
EC50 (GLP-1R [5]): 1.1 nM

CC[C@H](C)[C@H](NC(=O)[C@H](CC(C)C)NC(=O)[C@H](Cc1c[nH]c2ccccc12)NC(=O)[C@H](CCC(=O)O)NC(=O)[C@@H](NC(=O)[C@H](Cc1ccccc1)NC(=O)[C@H](CC(C)C)NC(=O)[C@H](Cc1ccc(O)cc1)NC(=O)[C@@H](NC(=O)[C@H](C)NC(=O)[C@H](CCC(=O)O)NC(=O)[C@H](CCC(=O)O)NC(=O)[C@H](CCC(=O)O)NC(=O)[C@H](CCSC)NC(=O)[C@H](CCC(N)=O)NC(=O)[C@@H](NC(=O)[C@H](CO)NC(=O)[C@H](CC(C)C)NC(=O)[C@H](CC(=O)O)NC(=O)[C@H](CO)NC(=O)[C@@H](NC(=O)[C@H](Cc1ccccc1)NC(=O)[C@@H](NC(=O)CNC(=O)[C@H](CCC(=O)O)NC(=O)CNC(=O)[C@@H](N)Cc1c[nH]cn1)[C@@H](C)O)[C@@H](C)O)[C@@H](C)CC)C(C)C)[C@@H](C)CC)C(=O)N[C@@H](CC(N)=O)C(=O)NCC(=O)NCC(=O)N1CCC[C@H]1C(=O)N[C@@H](CO)C(=O)N[C@@H](CO)C(=O)NCC(=O)N[C@@H](C)C(=O)N1CCC[C@H]1C(=O)N1CCC[C@H]1C(=O)N1CCC[C@H]1C(=O)N[C@@H](CO)C(=O)N[C@@H](CS)C(=O)O [TSME-5] (H-HGEGTFTSDLSIQMEEEAVYLFIEWLINGGPSSGAPPPSC-OH)
EC50 (GLP-1R [1]): 8.83 nM
